The nature of this data set: Microsomal stability in human liver microsomes assessed as intrinsic clearance. The data set is classed as ADME, Microsome. Conditions: read-out: CLH.

With `Nc1ncc(-c2cc(C3CC3)cc(N3C[C@@H]4C[C@H]3CO4)n2)nc1OC(F)F`, the CLint scaled is 15.9 mL/min/kg.
Then `Nc1ncc(-c2cc(C3CC3)nc(N3C[C@@H]4C[C@H]3CO4)c2)nc1OC(F)F`, with 15.8 mL/min/kg.

The values are drawn from ChEMBL document CHEMBL5236614, “Discovery of Potent and Selective Dual Leucine Zipper Kinase/Leucine Zipper-Bearing Kinase Inhibitors with Neuroprotective Properties in In Vitro and In Vivo Models of Amyotrophic Lateral Sclerosis” (J Med Chem, 2022).
